Assay results as given in patent US20080038251A1, “MN/CA IX and MAPK inhibition” (priority 2006, published 2008).
“Also recorded” adds a separate entry of the source.

How the values were obtained:
[1] = system: tumor xenograft models; settings: cited from earlier work
[2] = system: MEK; settings: biochemical assays; cited from earlier work
[3] = Phase I and II clinical trials; cited from earlier work
[4] = system: CA IX protein; assay: Immunoblotting of endogenous CA IX protein expression in HeLa cells; assay type: cell-based, human; settings: data not shown; for CA IX protein level / hypoxic induction of CA IX protein: Example 9, hypoxia
Description: HeLa cells were plated in dense (80,000 cells/cm^2) and sparse (10,000 cells/cm^2) cultures and incubated for 24 h. […] Parallel control dishes were pre-treated and maintained in normoxia for the same time period.
For the detection of CA IX, the cells were extracted with cold RIPA buffer for 15 min at 4° C. The extracts were then centrifuged (15 min at 13,000 rpm) and total protein concentrations were determined by BCA assay (Pierce, Rockford, Ill.). Samples of 30 μg total proteins were separated by the electrophoresis using 10% SDS-PAGE and blotted onto the PVDF membrane. Before immunodetection, the membrane was treated by the blocking buffer containing 5% non-fat milk in PBS with 0.2% Nonidet P-40 for 1 h and incubated for 1 h with M75 MAb diluted 1:2 in the blocking buffer. Then the membrane was washed, incubated for 1 h with the anti-mouse secondary antibody, washed again and developed with the ECL detection system. Intensity of CA IX-specific bands was analyzed by the Scion Image Beta 4.02 software (Scion Corporation, Frederick, Md.), and relative CA IX expression was expressed as percentages.

[5] = system: PR1-HRE CA9 promoter
Description: To dissect a direct contribution of HIF-1 to transcriptional activation of CA9 promoter, the inventors performed an additional experiment using Ka1.13 cell line that is defective for HIF-1α. The Ka1.13 cells were transfected either with PR1-HRE-luc reporter plasmid+renilla standard+control pcDNA3.1 plasmid or with the PR1-HRE-luc reporter plasmid+renilla standard+HIF-1α cDNA.
Cultures were pre-incubated with the inhibitors 1 h before the induction of hypoxia or addition of DFO.
The cells were plated into 30 mm Petri dishes to reach approximately 60% monolayer density on the next day. Transfection was performed with the 2 μg of PR1-HRE-luc and 100 ng of pRL-TK plasmids DNAs using a GenePorterII reagent (Gene Therapy Systems, San Diego, Calif.) according to the manufacturer's recommendation. One day later, the transfected cells were trypsinized and plated in triplicates into 24-well plates at different densities so that the dense culture contained eight times more cells than the sparse one. The cells were allowed to attach for 20 h, then they were pre-treated with inhibitors for 1 h and transferred to hypoxia (or treated with DFO) for additional 24 h. Reporter gene expression was assessed 48 h after the transfection using the Dual-Luciferase Reporter Assay System (Promega) and the luciferase activity was normalized against the renilla expression.
Therefore, the Ka13 cells were plated at intermediate density, transfected with the PR1-HRE-luc promoter construct together with the renilla control plasmid and pcDNA3.1 plasmid, pre-treated with the U0126 MAPK pathway inhibitor and exposed to a DFO-induced hypoxia. Parallel dishes were maintained in absence of DFO.

[6] = system: PR1-HRE CA9 promoter; assay: PR1-HRE-luc CA9 promoter luciferase-renilla reporter assay in HeLa cells; assay type: cell-based, human
Excerpt: (§1) The PR1-HRE-luc promoter construct was generated by an insertion of a −50/+37 CA9 genomic region amplified by PCR upstream of the firefly luciferase gene in pGL3-Basic luciferase reporter vector (Promega). pRL-TK renilla vector (Promega) served for the control of the transfection efficiency.
Therefore, the inventors have cloned a −50/+37 CA9 genomic region, containing that module in its natural context relative to the transcription start site, upstream of the reporter luciferase gene. The PR1-HRE-luc promoter construct was then co-transfected with the renilla-coding control plasmid to HeLa cells that express CA IX protein in response to hypoxia and high cell density.

[7] = system: PR1-HRE CA9 promoter; assay: PR1-HRE-luc CA9 promoter luciferase-renilla reporter assay in HEK293 cells; assay type: cell-based, human
Description: The inventors used PR1-HRE promoter region of CA9 ([…]) that contains HRE element and SP1 binding site, and assessed its transcriptional activity in luciferase-renilla reporter system. First, the PR1-HRE-luc plasmid was co-transfected together with renilla internal standard to HEK293 cells plated in high density and treated by the U0126 inhibitor of ERK (MAP kinases) for 20 h (FIG. 8). The promoter activity was analyzed in the transfected cells incubated in normoxic conditions or in the presence of DFO that can induce a chemical hypoxia. The promoter activity was determined as a ratio between the luciferase-related luminescence and renilla-related luminescence.
as §1

[8] = compared with CI-1040; cited from earlier work
[9] = compared with CI-1040; cited from earlier work; remark: listed apart in the source
[10] = compared with CI-1040; cited from earlier work; remark: listed apart in the source

Cn1cnc2c(F)c(Nc3ccc(Br)cc3Cl)c(C(=O)NOCCO)cc21 [ARRY-142886]
anti-tumor activity [1]: potent anti-tumor activity | selectivity for MEK [2]: high selectivity for MEK

Rencarex: an MN-specific drug tested in Phase I and II clinical trials
tolerability / drug-related side effects [3]: well-tolerated, with no serious drug-related side effects

mithramycin A [MMA]
CA IX protein level / hypoxic induction of CA IX protein ([4]; HeLa): reduced the CA IX protein level

N#CC(=C(/N)Sc1ccccc1N)/C(C#N)=C(\N)Sc1ccccc1N [U0126]
PR1-HRE CA9 promoter transcriptional activity ([5]; Example 3, Ka1.13 cells with control pcDNA3.1 or HIF-1α cDNA): reduced the CA9 promoter activity in both the presence and absence of HIF-1α; also recorded: diminished transcription from PR1-HRE promoter both in the presence and in the absence of HIF-1α | CA9 promoter activity, fraction of HIF-1α induced value ([5]; Example 6, Ka13 co-transfected with wild-type HIF-1α cDNA): approximately one third | CA9 promoter activity, remaining fraction ([5]; Example 6, Ka13 with empty pcDNA3.1 (no HIF-1α), with and without DFO): less than a half | CA9 promoter activity ([6]; Example 5, HeLa sparse and dense, normoxia or DFO hypoxia, 20 μM inhibitor): about fourfold decrease; also recorded: remarkable reduction | CA9 promoter activity, fraction of control value ([6]; Example 8, dense hypoxic (1% O2) HeLa, 20 μM U0126, 10 μM LY294002): about one third | effect on CA9 promoter activity ([6]; Example 8, normoxic and sparse HeLa cells, compared with dense hypoxic cells): less pronounced | PR1-HRE CA9 promoter transcriptional activity (luciferase/renilla ratio) ([7]; Example 1, HEK293 plated in high density, inhibitor 20 h, normoxia or DFO-induced hypoxia): down-regulation of the PR1-HRE CA9 promoter activity; also recorded: diminished PR1-HRE transcriptional activity both in normoxia and in hypoxia | CA9 promoter activity ([7]; Example 5, HEK293 dense culture exposed to hypoxia, data not shown): considerably inhibited; also recorded: remarkable reduction | CA IX protein expression (Western blotting) ([4]; Example 2, sparse and dense HeLa, normoxia (21% O2) and hypoxia (2% O2)): evident also at the level of CA IX protein | endogenous CA IX protein levels ([4]; Example 5, HeLa, hypoxia and/or high density): corresponded with the promoter activities | CA IX protein level / hypoxic induction of CA IX protein ([4]; HeLa): reduced the CA IX protein level

O=C(NOC[C@H](O)CO)c1ccc(F)c(F)c1Nc1ccc(I)cc1F [PD-0325901]
metabolic stability [8]: improved metabolic stability | anti-tumor activity [1]: potent anti-tumor activity | solubility [9]: more soluble | bioavailability [10]: improved
